{"source": "paper PMC8820820", "about": "“Feasibility and safety of targeting mitochondria for cancer therapy – preclinical characterization of gamitrinib, a first-in-class, mitochondriaL-targeted small molecule Hsp90 inhibitor” (Cancer Biology & Therapy, 2022)", "key": {"CYP2C8": {"target": "T1, CYP2C8 (Homo sapiens, UniProt P10632)", "T1 sequence (P10632 1-490)": "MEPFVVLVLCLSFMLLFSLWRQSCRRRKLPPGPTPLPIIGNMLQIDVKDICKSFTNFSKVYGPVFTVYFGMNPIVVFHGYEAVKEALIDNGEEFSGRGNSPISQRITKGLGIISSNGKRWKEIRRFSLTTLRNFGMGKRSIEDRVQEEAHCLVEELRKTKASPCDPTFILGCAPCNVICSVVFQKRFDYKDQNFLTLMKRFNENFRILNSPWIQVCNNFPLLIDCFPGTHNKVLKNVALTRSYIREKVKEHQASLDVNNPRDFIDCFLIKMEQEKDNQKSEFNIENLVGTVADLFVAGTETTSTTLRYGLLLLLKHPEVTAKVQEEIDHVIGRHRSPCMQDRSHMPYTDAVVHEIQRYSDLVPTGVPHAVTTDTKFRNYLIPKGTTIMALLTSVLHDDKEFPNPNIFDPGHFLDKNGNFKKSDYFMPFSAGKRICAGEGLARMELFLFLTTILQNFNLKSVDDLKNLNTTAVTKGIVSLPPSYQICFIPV", "details": "microsomes", "description": "CYP inhibition in liver microsomes. […] Samples were analyzed for metabolite formation by LC-MS/MS. The results were expressed using the peak area ratio of analyte to internal standard, based on the calibration curves.\nWhere Range=fitted uninhibited value, s=slope factor, x=inhibitor concentration, y=% control activity."}, "Nav1.5": {"target": "Nav1.5 (Homo sapiens, UniProt Q14524)", "sequence (Q14524 whole entry)": "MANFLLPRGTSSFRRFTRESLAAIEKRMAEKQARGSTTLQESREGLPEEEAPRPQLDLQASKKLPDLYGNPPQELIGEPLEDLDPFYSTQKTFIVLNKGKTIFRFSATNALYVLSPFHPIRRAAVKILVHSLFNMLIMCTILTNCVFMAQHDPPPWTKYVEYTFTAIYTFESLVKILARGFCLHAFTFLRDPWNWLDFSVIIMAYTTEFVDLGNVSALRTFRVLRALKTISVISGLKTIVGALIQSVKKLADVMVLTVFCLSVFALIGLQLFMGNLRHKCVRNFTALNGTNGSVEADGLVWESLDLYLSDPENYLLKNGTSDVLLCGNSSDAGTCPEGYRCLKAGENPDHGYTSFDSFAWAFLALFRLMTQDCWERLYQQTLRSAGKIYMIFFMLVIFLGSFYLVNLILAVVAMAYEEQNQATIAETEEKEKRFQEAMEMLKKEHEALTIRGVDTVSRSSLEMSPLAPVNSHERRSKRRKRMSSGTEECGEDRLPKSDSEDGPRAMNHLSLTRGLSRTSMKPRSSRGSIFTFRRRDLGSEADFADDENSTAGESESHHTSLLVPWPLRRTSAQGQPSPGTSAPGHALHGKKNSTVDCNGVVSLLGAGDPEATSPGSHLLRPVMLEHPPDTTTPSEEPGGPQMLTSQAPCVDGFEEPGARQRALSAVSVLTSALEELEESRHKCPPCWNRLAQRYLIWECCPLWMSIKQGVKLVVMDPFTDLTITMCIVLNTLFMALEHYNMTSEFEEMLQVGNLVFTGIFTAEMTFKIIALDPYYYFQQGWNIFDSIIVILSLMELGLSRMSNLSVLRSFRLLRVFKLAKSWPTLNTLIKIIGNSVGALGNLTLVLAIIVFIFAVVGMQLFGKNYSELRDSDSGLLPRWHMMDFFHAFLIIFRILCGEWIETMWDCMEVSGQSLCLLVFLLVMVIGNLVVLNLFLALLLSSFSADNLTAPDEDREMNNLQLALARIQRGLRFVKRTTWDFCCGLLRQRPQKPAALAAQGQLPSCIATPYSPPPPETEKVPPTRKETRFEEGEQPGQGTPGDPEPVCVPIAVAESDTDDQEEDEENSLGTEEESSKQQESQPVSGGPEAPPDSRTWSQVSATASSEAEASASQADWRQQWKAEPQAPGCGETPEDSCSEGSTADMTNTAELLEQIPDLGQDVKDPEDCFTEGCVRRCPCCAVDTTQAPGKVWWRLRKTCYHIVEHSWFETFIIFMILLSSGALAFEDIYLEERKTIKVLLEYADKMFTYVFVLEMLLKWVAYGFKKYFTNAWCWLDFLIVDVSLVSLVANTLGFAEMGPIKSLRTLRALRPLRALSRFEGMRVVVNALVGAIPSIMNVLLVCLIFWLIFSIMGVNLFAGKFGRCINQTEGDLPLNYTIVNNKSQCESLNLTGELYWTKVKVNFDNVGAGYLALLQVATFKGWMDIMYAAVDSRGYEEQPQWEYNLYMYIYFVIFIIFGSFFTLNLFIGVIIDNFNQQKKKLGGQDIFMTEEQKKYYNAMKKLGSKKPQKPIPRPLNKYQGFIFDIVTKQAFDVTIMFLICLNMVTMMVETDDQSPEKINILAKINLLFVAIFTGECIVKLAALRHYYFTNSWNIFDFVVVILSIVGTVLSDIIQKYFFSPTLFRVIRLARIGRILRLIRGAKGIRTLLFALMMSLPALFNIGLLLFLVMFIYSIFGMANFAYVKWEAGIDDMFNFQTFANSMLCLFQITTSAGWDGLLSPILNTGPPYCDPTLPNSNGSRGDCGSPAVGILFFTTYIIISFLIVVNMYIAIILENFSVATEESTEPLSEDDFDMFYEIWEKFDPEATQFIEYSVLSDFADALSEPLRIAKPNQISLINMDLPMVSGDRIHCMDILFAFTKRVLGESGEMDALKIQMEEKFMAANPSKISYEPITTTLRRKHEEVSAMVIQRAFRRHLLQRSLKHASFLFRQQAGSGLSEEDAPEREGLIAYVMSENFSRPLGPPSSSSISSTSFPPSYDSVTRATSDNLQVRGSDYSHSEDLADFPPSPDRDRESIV", "experiment": "Ion channel screening", "type": "cell-based", "details": "10 µM, pulse 26", "excerpt": "Ion channel screening. […] The parameters measured were the maximum inward current evoked on stepping to -20 mV from the 1st and 26th pulse. Human Kv4.3/KChIP2 currents were evoked from a holding potential of -80 mV by a series of four 500 msec pulses to 0 mV using a 1000 msec interval between pulses. The parameter measured was the amplitude of the outward current 50 msec after the onset of the 4th voltage step to 0 mV. […] Human Kv1.5 currents were evoked by a single pulse from a holding potential of -80 mV to a potential of 0 mV for 4 sec before returning to -80 mV. The parameters measured were the maximum amplitude of outward currents evoked at the beginning of the voltage pulse and at the end of the voltage step from -80 mV to 0 mV. Human KCNQ1/minK currents were evoked by a single pulse delivered from a holding potential of -80 mV to +60 mV for 4 sec before returning to -80 mV. The parameter measured was the maximum outward current evoked on stepping to +60 mV from the holding potential of -80 mV. hERG currents were evoked by a three-pulse protocol where voltage was first stepped to +40 mV for two sec from a holding potential of –80 mV to inactivate hERG channels. […] The parameter measured was the maximum inward current evoked upon stepping to -110 mV from the holding potential of -30 mV. […]"}, "[1]": {"experiment": "Toxicokinetics in rats, twice weekly IV for 29 d", "type": "in vivo, Sprague-Dawley rats", "protocol": "Ninety-six male and female Sprague-Dawley rats (6–7 weeks old) were received from Charles River Laboratories (Raleigh, NC) catheterized via a femoral vein prior to arrival. Animals were acclimated in individual stainless-steel cages with access to water and Certified Rodent Diet #2014 C (Envigo RMS) ad libitum for 6 d prior to study initiation. Environmental controls were set to maintain a temperature range of 20 to 26°C, a relative humidity range of 30 to 70%, eight or greater air changes/h, and a 12-h light/dark cycle. Animals were infused with sterile isotonic (0.9%) saline for a minimum of 4 d (0.20 mL/h for males or 0.15 mL/h for females) during the predose phase. At initiation of dosing, animals were 8 to 9 weeks old, and body weights ranged from 283 to 341 g for males and 188 to 238 g for females. Gamitrinib formulated as indicated above was administered by IV infusion on d 4, 8, 11, 15, 18, 22, 25, and 29 of the dosing phase at 1, 10, 25 mg/kg/dose and dose volume of 5 mL/kg. The vehicle control administered with the same schedule contained 2.5% DMSO, 0.125% polysorbate 80, 0.031% lecithin, 1.25% sucrose and 4.375% dextrose. Animals were checked twice daily throughout the duration of the study for mortality, abnormalities, and signs of pain or distress. Detailed observations were conducted for each animal up to two times during the predose phase and for each toxicity animal prior to dosing on d 1, 8, 15, 22, and 29 of the dosing phase and on d 1, 7, and 14 of the recovery phase. Blood samples were collected on d. 1, 4 and 29 of the dosing phase 5 min, 1 h and 24 h post-dose, maintained on chilled cryoracks and centrifuged within 1 h of collection. Tissue samples harvested from each animal were embedded in paraffin, sectioned, and slides were prepared and stained with hematoxylin and eosin."}}}
{"smiles": "COC1C=CC=C(C)C(=O)NC2=CC(=O)C(NCCCCCC[P+](c3ccccc3)(c3ccccc3)c3ccccc3)=C(CC(C)CC(OC)C(O)C(C)C=C(C)C1OC(N)=O)C2=O.F[P-](F)(F)(F)(F)F", "note": "(stereo not shown) [Gamitrinib]", "values": [{"measurement": "IC50", "setting": "CYP2C8", "result": 8, "unit": "µM"}, {"measurement": "inhibition of Nav1.5 currents", "setting": "Nav1.5", "result": "22.3 ± 5.3", "unit": "%"}, {"measurement": "drug accumulation", "setting": "[1]; Cmax and AUC0–24 d 4 vs d 29", "result": "no drug accumulation after multiple doses"}, {"measurement": "AUC0–24", "setting": "[1]; rat, in vivo, 1 mg/kg", "result": 174, "unit": "ng·h/mL"}, {"measurement": "AUC0–24", "setting": "[1]; rat, in vivo, 10 mg/kg", "result": 1300, "unit": "ng·h/mL"}, {"measurement": "CLSS", "setting": "[1]; rat, in vivo, iv, 25 mg/kg", "result": "84.83 to 131.33", "unit": "mL/min/kg"}, {"measurement": "VSS", "setting": "[1]; rat, in vivo, iv, 25 mg/kg", "result": "12.2 to 90.0", "unit": "L/kg"}]}
